Measurements published in patent publication US20230295255A1, “ANNEXIN A1-DERIVED POLYPEPTIDE ANALOGUES” (Reso Ther Pharma A/S, priority 2020, published 2023).
Ends that are not written are not given here.

B1: AnxA1: full length Annexin A1 protein (Homo sapiens, SEQ ID NO:1) (protein, listed as Homo Sapiens)
chain: MAMVSEFLKQAWFIENEEQEYVQTVKSSKGGPGSAVSPYPTFNPSSDVAALHKAIMVKGVDEATIIDILTKRNNAQRQQIKAAYLQETGKPLDETLKKALTGHLEEVVLALLKTPAQFDADELRAAMKGLGTDEDTLIEILASRTNKEIRDINRVYREELKRDLAKDITSDTSGDFRNALLSLAKGDRSEDFGVNEDLADSDARALYEAGERRKGTDVNVFNTILTTRSYPQLRRVFQKYTKYSKHDMNKVLDLELKGDIEKCLTAIVKCATSKPAFFAEKLHQAMKGVGTRHKALIRIMVSRSEIDMNDIKAFYQKMYGISLCQAILDETKGDYEKILVALCGGN

Legend:
[1] = Determination of terminal half times after intravenous injection in beagle dogs (plasma, LC/MS-MS); format: in vivo; details: dog; for half-life: in vivo, intravenous, read-out: terminal half time (t½)
Protocol: 6 beagle dogs, 3 males and 3 females, HsdRcc:DOBE from Marshall BioResources, F-03800 Gannat, France. Age 5-6 months, weight 6-8 kg were kept 21° C.±3° C. with relative humidity of 55%±15% with 12 hours light and 12 hours darkness (Light on from 06:00 to 18:00 h). Male and females kept separate.
Following a pre-treatment period of a minimum of two weeks the animals received an intravenous injection of test item through the cephalic vein given over 5 min using a butterfly syringe with volume adjusted according to the most recent body weight data. The butterfly was flushed with 5 ml 0.9% NaCl immediately after injection. The dose volume was 5 mL/kg body weight. One male and one female were treated at each dose level.
The following doses of test item was given: 2, 6 and 10 mg/kg in 5% glucose; 1.0 mM acetic acid. One male and one female were treated on each dose level. For the control peptide the doses given were: 1, 3 and 10 mg/kg.
(§1) Blood samples for determination of plasma levels of test item of approximately 0.4 mL per sample was drawn from the contralateral cephalic vein. The blood was sampled into a collecting tube containing K2EDTA as anticoagulant. After collection, the collecting tube was immediately labelled and placed in ice water (sufficient to cover the blood entirely) until centrifugation. Within 20 minutes after blood sampling, blood was centrifuged for 8 minutes at 2150 G, at +4° C.). The entire plasma sample was transferred to Eppendorf microcentrifuge tubes (Polypropylene tubes with Eppendorf Safe-Lock lid, Sigma, Denmark). Within 30 minutes after centrifugation, plasma was snap frozen on dry ice and stored at −70° C. or below.
Plasma concentration of test item and control peptide was measured by use of LC/MS-MS.

[2] = Determination of terminal half times after intravenous injection in rats (plasma, LC/MS-MS); set-up: species or system Male Wistar rats; details: in vivo, rat, read-out: terminal half time (t½)
Protocol: Male Wistar rats (Crl:WI(Han), Charles River, Germany, weight 300 g±20 g were kept in transparent polycarbonate cages (floor area: 1500 cm^2—height: at least 21 cm) with two in each cage, males and females separated at a temperature of 21° C.±3° C. and relative humidity of 55%±15% with a 12 hours light and 12 hours darkness (Light on from 06:00 to 18:00 h). Following a minimum of five days acclimatization the animals received an intravenous injection of test item through the tail vein given over 60 seconds using a butterfly syringe with volume adjusted according to the most recent body weight data. The butterfly was flushed with 0.4 mL 0.9% NaCl immediately after injection. […]. The dose volume was 5 mL/kg body weight.
The following doses of test item was given: 0.1, 1 and 10 mg/kg in 5% glucose; 1.0 mM acetic acid. Six animals were treated on each dose level.
as §1, with “On the day of dosing blood” for “Blood”, “samples” for “samples for determination of plasma levels of test item”, “mL” for “mL per sample”, “using” for “from”, “sublingual method.” for “contralateral cephalic vein.”
Time point for blood sampling: 2, 5, 10 and 20 min from completion of dosing.
Plasma concentration of the test item was measured by use of LC/MS-MS.

TNF-α = experiment: Low grade inflammation: liver expression level of TNF-α by real time PCR in HFD NASH model; format: in vivo, C57BL/6 mice; details: HFD mice, AnxA1 1 mg/kg/day, Test Item A 250 μg/kg/day
Protocol: (§2) Male C57BL/6 mice were housed (7-9/cage) in pathogen free conditions and maintained at constant room temperature (20-22° C.) with free access to water and food under a 12 h light/dark cycle (lights on at 07:00 h). […] This diet leads within 16 weeks to steatohepatitis associated with obesity and insulin resistance, which mimics what is seems in humans suffering from NASH. The control group received ad libitum normal chow for 16 weeks. The body weight for each mouse was recorded weekly by using a dedicated digital balance (each Friday afternoon—starting from 5 pm).
Low inflammation in the livers was determined by the expression level of TNF-α measured by real time PCR using a commercial available tracer.
(§3) Mice were divided in experimental groups as below: • A: Non HFD: Time control group: Had access to standard chow diet throughout the study period • B: Vehicle: Vehicle treatment group: Received HFD+Vehicle treatment (sterile saline injections) once daily • C: AnxA1: AnnexinA1 treatment group: Received HFD+Annexin A1 full-length protein at a dose of 1 mg/kg/day. • D: Test Item A: Test compound A group: Received HDF+250 μg/kg/day of Test compound A=[…] (SEQ ID NO:4); (AnxA1 (2-46 Val24Leu).
Treatment was commended following 10 weeks HFD and was given as a once daily intraperitoneal given 5 days a week (Monday-Friday) for 6 weeks. […]

[3] = Body weight and liver weight in experimental model of Nonalcoholic Steatohepatitis (HFD mice); format: in vivo, C57BL/6 mice; details: end of 6 weeks treatment, i.p. once daily 5 days a week, AnxA1 1 mg/kg/day, Test Item A 250 μg/kg/day
Protocol: as §2, §3
Treatment was commended following 10 weeks HFD and was given as a once daily intraperitoneal given 5 days a week (Monday-Friday) for 6 weeks. The animals were kept on HFD during the 6 weeks treatment period. […]

[4] = Liver injury assessment: blood levels of alanine aminotransferase (ALT) in HFD NASH model; format: in vivo, C57BL/6 mice; details: HFD mice, after 6 weeks treatment, i.p.; AnxA1 1 mg/kg/day, Test Item A 250 μg/kg/day
Protocol: as §2
Liver injury was assessed before and after treatment with test compound, control compound or vehicle by evaluating blood levels of alanine aminotransferase (ALT) with a spectrophotometric kit. Blood sampling was carried out by retro-orbital bleeding.
as §3, with “Val24Leu). […]” for “Val24Leu).”

Molecule	half-life ([1]; 1 mg/kg)	half-life ([1]; 3 mg/kg)	half-life ([1]; 10 mg/kg)	half-life ([2]; 0.1 mg/kg)	half-life ([2]; 1 mg/kg)	half-life ([2]; 10 mg/kg)	terminal half time (t½) of test item, times longer than the control peptide ([1]; single intravenous dosing)	half-life ([1]; 2 mg/kg)	half-life ([1]; 6 mg/kg)	Relative expression levels of TNF-α with the mean expression in group B (vehicle) set to 1 (TNF-α)	Bodyweight, mean value per group [3]	Liver Weight, mean value per group [3]	ALT (blood alanine aminotransferase) [4]
AMVSEFLKQAWFIENEEQEYVQTLKSSKGGPGSAVSPYPTFNPSSDV [control peptide, reference compound]	5.57 min	5.69 min	5.86 min	–	–	–	–	–	–	–	–	–	–
AMVSEFLKQAWFIENEEQEYVQTLKSSKGGPGSAVSPYPTFNPSS [Test Item A]	–	–	28.3 min	3.18 min	2.87 min	5.85 min	up to 4.8 times	9.16 min	19.8 min	–	–	–	–
B1	–	–	–	–	–	–	–	–	–	1.17±023	32.5 g	2.0 g	100 u/L
